Each compound was assayed against T1, renin (Homo sapiens, UniProt P00797) (assay: Formation of angiotensin I in human plasma (in vitro test of Nussberger et al.), radio-immunoassay). Conditions: one range stated for the listed examples together, about, read-out: IC50, concentration of the inhibitor which reduces the formation of angiotensin I by 50%.
T1 construct: This test measures the formation of angiotensin I in human plasma; from tissue; host or cells: human plasma
T1 sequence (P00797 67-406): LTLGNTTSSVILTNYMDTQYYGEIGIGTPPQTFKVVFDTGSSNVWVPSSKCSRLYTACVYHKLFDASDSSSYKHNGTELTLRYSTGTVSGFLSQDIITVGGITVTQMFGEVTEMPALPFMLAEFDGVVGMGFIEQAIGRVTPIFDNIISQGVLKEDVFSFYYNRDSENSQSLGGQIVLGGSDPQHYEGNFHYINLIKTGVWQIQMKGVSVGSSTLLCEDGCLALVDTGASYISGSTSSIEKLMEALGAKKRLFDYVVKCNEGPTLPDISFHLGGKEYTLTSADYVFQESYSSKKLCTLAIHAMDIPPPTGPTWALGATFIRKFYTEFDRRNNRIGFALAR
Format: biochemical
Text: The compounds of the formula (I) or (IA), and their pharmaceutically acceptable salts have an inhibitory effect on the natural enzyme renin. The latter passes from the kidneys into the blood and there brings about the cleavage of angiotensinogen to form the decapeptide angiotensin I which is then cleaved in the lung, the kidneys and other organs to the octa-peptide angiotensin II. Angiotensin II raises the blood pressure both directly by arterial constriction, and indirectly by releasing the hormone aldosterone, which retains sodium ions, from the adrenals, which is associated with an increase in the extracellular fluid volume. This increase is attributable to the effect of angiotensin II itself or of the heptapeptide angiotensin III formed therefrom as cleavage product. Inhibitors of the enzymatic activity of renin bring about a reduction in the formation of angiotensin I and, as a consequence thereof, the formation of a smaller amount of angiotensin II. The reduced concentration of this active peptide hormone is the direct cause of the blood pressure-lowering effect of renin inhibitors.
The effect of renin inhibitors is detected inter alia experimentally by means of in vitro tests where the reduction in the formation of angiotensin I is measured in various systems (human plasma, purified human renin together with synthetic or natural renin substrate). The following in vitro test of Nussberger et al. (1987) J. Cardiovascular Pharmacol., Vol. 9, pp. 39-44, is used inter alia. This test measures the formation of angiotensin I in human plasma. The amount of angiotensin I formed is determined in a subsequent radio-immunoassay. The effect of inhibitors on the formation of angiotensin I is tested in this system by adding various concentrations of these substances. The IC50 is defined as the concentration of the particular inhibitor which reduces the formation of angiotensin I by 50%. The compounds of the present invention show inhibitory effects in the in vitro systems at minimal concentrations of about 10^−6 to about 10^−10 mol/l.

| SMILES | IC50 [nM] |
| --- | --- |
| COCCCN1CCOc2ccc(CO[C@H]3CNC[C@@H](OCC(=O)N4[C@H](C)COC[C@@H]4C)[C@@H]3c3ccc(OC)cc3)cc21 [Example 61, 1-((3S,5R)-3,5-Dimethylmorpholin-4-yl)-2-{(3S,4R,5R)-4-(4-methoxyphenyl)-5-[4-(3-methoxypropyl)-3,4-dihydro-2H-benzo[1,4]oxazin-6-ylmethoxy]piperidin-3-yloxy}-ethanone] | 3.8 to 814 |
| COCCCN1CCOc2ccc(CO[C@H]3CNC[C@@H](CNC(C)=O)[C@@H]3c3ccc(OC)cc3)cc21 [Example 91, N-{(3S,4R,5R)-4-(4-Methoxyphenyl)-5-[4-(3-methoxypropyl)-3,4-dihydro-2H-benzo[1,4]oxazin-6-ylmethoxy]piperidin-3-ylmethyl}acetamide] | 3.8 to 814 |
| COCCCN1CCOc2ccc(CO[C@H]3CNC[C@@H](OC[C@H](O)COC)[C@@H]3c3ccc(SCCOC)cc3)cc21 [Example 70, (R)-1-Methoxy-3-{(3S,4R,5R)-4-[4-(2-methoxyethylsulfanyl)phenyl]-5-[4-(3-methoxy-propyl)-3,4-dihydro-2H-benzo[1,4]oxazin-6-ylmethoxy]piperidin-3-yloxy}propan-2-ol] | 3.8 to 814 |
| COCCCN1CCOc2ccc(CO[C@H]3CNC[C@@H](OC[C@H](O)COC)[C@@H]3c3ccc(C#N)cc3)cc21 [Example 73, 4-{(3S,4R,5R)-3((R)-2-Hydroxy-3-methoxypropoxy)-5-[4-(3-methoxypropyl)-3,4-dihydro-2H-benzo[1,4]oxazin-6-ylmethoxy]piperidin-4-yl}benzonitrile] | 3.8 to 814 |
| COCCCN1CCOc2ccc(CO[C@H]3CNC[C@@H](OCCN4[C@H](C)COC[C@@H]4C)[C@@H]3c3ccc(OC)cc3)cc21 [Example 68, 6-[(3R,4R,5S)-5-[2-((3R,5S)-3,5-Dimethylmorpholin-4-yl)ethoxy]-4-(4-methoxy-phenyl)piperidin-3-yloxymethyl]-4-(3-methoxypropyl)-3,4-dihydro-2H-benzo[1,4]oxazine] | 3.8 to 814 |
| COCCCN1CCOc2ccc(CO[C@H]3CNC[C@@H](OCC(C)(C)OC)[C@@H]3c3ccc(OC)cc3)cc21 [Example 8, 6-[(3R,4R,5S)-5-(2-Methoxy-2-methylpropoxy)-4-(4-methoxyphenyl)piperidin-3-yloxymethyl]-4-(3-methoxypropyl)-3,4-dihydro-2H-benzo[1,4]oxazine] | 3.8 to 814 |
| COCCCN1CCOc2ccc(CO[C@H]3CNC[C@@H](OC[C@@H](O)COC)[C@@H]3c3ccc(C#N)cc3)cc21 [Example 74, 4-{(3S,4R,5R)-3((S)-2-Hydroxy-3-methoxypropoxy)-5-[4-(3-methoxypropyl)-3,4-dihydro-2H-benzo[1,4]oxazin-6-ylmethoxy]piperidin-4-yl}-benzonitrile] | 3.8 to 814 |
| COCCCN1CCOc2ccc(CO[C@H]3CNC[C@@H](OCC#N)[C@@H]3c3ccc(OC)cc3)cc21 [Example 1, {(3S,4R,5R)-4-(4-Methoxyphenyl)-5-[4-(3-methoxypropyl)-3,4-dihydro-2H-benzo[1,4]oxazin-6-ylmethoxy]piperidin-3-yloxyl}acetonitrile] | 3.8 to 814 |
| C#CCO[C@@H]1CNC[C@H](OCc2ccc3c(c2)N(CCCOC)CCO3)C1c1ccc(OC)cc1 (stereo in doubt) [Example 5, 6-[(3R,4R,5S)-4-(4-Methoxyphenyl)-5-prop-2-ynyloxypiperidin-3-yloxymethyl]-4-(3-methoxy-propyl)-3,4-dihydro-2H-benzo[1,4]oxazine] | 3.8 to 814 |
| COCCCSc1ccc([C@@H]2[C@@H](OCc3ccc4c(c3)N(CCCOC)CCO4)CNC[C@H]2OC[C@H](O)COC)cc1 [Example 71, (R)-1-Methoxy-3-{(3S,4R,5R)-5-[4-(3-methoxypropyl)-3,4-dihydro-2H-benzo[1,4]oxazin-6-ylmethoxy]-4-[4-(3-methoxypropylsulfanyl)phenyl]piperidin-3-yloxy}propan-2-ol] | 3.8 to 814 |
| COCCCN1CCOc2ccc(CO[C@H]3CNC[C@@H](OC[C@H](O)COC)[C@@H]3c3ccc(OC)cc3)cc21 [Example 2, (R)-1-Methoxy-3-{(3S,4R,5R)-4-(4-methoxyphenyl)-5-[4-(3-methoxypropyl)-3,4-dihydro-2H-benzo[1,4]oxazin-6-ylmethoxy]piperidin-3-yloxy}propan-2-ol] | 3.8 to 814 |
| COCCCN1CCOc2ccc(CO[C@H]3CNC[C@@H](CNC(C)C)[C@@H]3c3ccc(OC)cc3)cc21 [Example 87, Isopropyl-{(3S,4R,5R)-4-(4-methoxyphenyl)-5-[4-(3-methoxypropyl)-3,4-dihydro-2H-benzo[1,4]oxazin-6-ylmethoxy]piperidin-3-ylmethyl}amine] | 3.8 to 814 |

Reference: patent publication US20090029981A1, “SUBSTITUTED 4-PHENYLPIPERIDINES” (priority 2006, published 2009)
